Key:
[1] = biological target: human Werner helicase (WRN, amino acids 517-1235 with L1074F point mutation) (Homo sapiens (Human), UniProt Q14191, L1074F); assay: WRN (BV08) ADP-Glo assay; assay type: biochemical; conditions: human WRN (aa 517-1235, L1074F), read-out: ADP-Glo_hWRN_IC50
Outline: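 ADP-Glo luminescence read after 60 min, 25 °C reaction of 0.15 nM WRN (517-1235, L1074F, Sf9-expressed, tag removed) with 0.1 nM DNA duplex and 5 μM ATP, following 15 min compound preincubation; 20 mM Bicine pH 7.5, 1% DMSO. IC50 from 3- or 4-parameter fit of % inhibition.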

[2] = system: p21 induction in HCT 116 cells; assay: p21 induction in cells (In-Cell Western, p21/GAPDH ratio); assay type: cell-based; conditions: Homo sapiens, 24 h compound incubation, read-out: p21_EC50
Outline: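 EC50 values come from nonlinear fits of percent activation, defined by the 800/700 nm p21-to-GAPDH ratio scaled between DMSO (low) and internal WRN inhibitor (high) controls. In-Cell Western read after 24 h compound exposure of HCT 116 cells at 37° C. Duplicate 11-point series, 2-fold steps, usually starting at 10 μM.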

Sequence of human Werner helicase (WRN, amino acids 517-1235 with L1074F point mutation) (Q14191 other isoform, or with tags, fused parts or gaps L1074F (already in the parent)): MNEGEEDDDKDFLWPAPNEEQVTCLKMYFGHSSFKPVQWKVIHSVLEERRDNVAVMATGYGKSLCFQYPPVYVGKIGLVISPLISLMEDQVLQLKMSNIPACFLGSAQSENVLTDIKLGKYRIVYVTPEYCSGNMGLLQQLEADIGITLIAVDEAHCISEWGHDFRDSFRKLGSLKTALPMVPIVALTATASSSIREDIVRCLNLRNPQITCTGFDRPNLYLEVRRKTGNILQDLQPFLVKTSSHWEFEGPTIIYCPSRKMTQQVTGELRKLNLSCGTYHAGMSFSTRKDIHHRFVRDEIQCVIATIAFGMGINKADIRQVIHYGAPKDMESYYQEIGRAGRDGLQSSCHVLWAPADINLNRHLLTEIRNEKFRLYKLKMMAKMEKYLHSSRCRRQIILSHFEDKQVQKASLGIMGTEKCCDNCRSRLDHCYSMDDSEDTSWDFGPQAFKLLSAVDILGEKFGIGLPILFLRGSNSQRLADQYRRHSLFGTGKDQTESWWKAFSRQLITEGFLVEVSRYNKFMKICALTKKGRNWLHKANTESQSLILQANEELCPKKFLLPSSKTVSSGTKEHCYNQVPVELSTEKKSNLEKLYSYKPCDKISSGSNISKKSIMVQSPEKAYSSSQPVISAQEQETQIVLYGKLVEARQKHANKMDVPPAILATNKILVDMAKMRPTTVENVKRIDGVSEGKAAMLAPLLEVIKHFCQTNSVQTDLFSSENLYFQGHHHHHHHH

Compound	IC50 [1]	EC50 [2]
CCc1c(N2CCN(C(=O)c3c(OC)ncc(C)c3O)CC2)c(=O)c2nn(-c3ccnc(OC)c3)nc2n1CC(=O)NC12CC(C(C)C)(C1)C2 [Compound I-114, 2-{5-ethyl-6-[4-(4-hydroxy-2-methoxy-5-methylpyridine-3-carbonyl)piperazin-1-yl]-2-(2-methoxypyridin-4-yl)-7-oxo-2H,4H,7H-[1,2,3]triazolo[4,5-b]pyridin-4-yl}-N-[3-(propan-2-yl)bicyclo[1.1.1]pentan-1-yl]acetamide]	5 to 50 nM	≤ 500 nM
CCc1c(N2CCN(C(=O)c3cccc4ncoc34)[C@H]3CC[C@@H]32)c(=O)c2nn(C3=CCOCC3)nc2n1CC(=O)Nc1ccc(C(F)(F)F)cc1Cl [Compound I-115, 2-{6-[(1S,6S)-5-(1,3-benzoxazole-7-carbonyl)-2,5-diazabicyclo[4.2.0]octan-2-yl]-2-(3,6-dihydro-2H-pyran-4-yl)-5-ethyl-7-oxo-2H,4H,7H-[1,2,3]triazolo[4,5-b]pyridin-4-yl}-N-[2-chloro-4-(trifluoromethyl)phenyl]acetamide]	5 to 50 nM	≤ 500 nM
CCc1c(N2CCN(C(=O)c3c(OC)ncc(C)c3O)[C@H]3CC[C@@H]32)c(=O)c2nn(-c3ccnc(OC)c3)nc2n1CC(=O)NC12CC(C(C)C)(C1)C2 [Compound I-116, 2-{5-ethyl-6-[(1S,6S)-5-(4-hydroxy-2-methoxy-5-methylpyridine-3-carbonyl)-2,5-diazabicyclo[4.2.0]octan-2-yl]-2-(2-methoxypyridin-4-yl)-7-oxo-2H,4H,7H-[1,2,3]triazolo[4,5-b]pyridin-4-yl}-N-[3-(propan-2-yl)bicyclo[1.1.1]pentan-1-yl]acetamide]	5 to 50 nM	≤ 500 nM
CCc1c(N2CCN(C(=O)c3c(OC)ncc(C)c3O)[C@H]3CC[C@@H]32)c(=O)c2nn(-c3ccnc(OC)c3)nc2n1CC(=O)NC12CC(C(F)(F)F)(C1)C2 [Compound I-117, 2-{5-ethyl-6-[(1S,6S)-5-(4-hydroxy-2-methoxy-5-methylpyridine-3-carbonyl)-2,5-diazabicyclo[4.2.0]octan-2-yl]-2-(2-methoxypyridin-4-yl)-7-oxo-2H,4H,7H-[1,2,3]triazolo[4,5-b]pyridin-4-yl}-N-[3-(trifluoromethyl)bicyclo[1.1.1]pentan-1-yl]acetamide]	5 to 50 nM	≤ 500 nM
CCc1c(N2CCN(C(=O)c3ncnc(C)c3O)CC2)c(=O)c2nn(-c3ccnc(OC)c3)nc2n1CC(=O)NC1CC2(CCC2)C1 [Compound I-118, 2-{5-ethyl-6-[4-(5-hydroxy-6-methylpyrimidine-4-carbonyl)piperazin-1-yl]-2-(2-methoxypyridin-4-yl)-7-oxo-2H,4H,7H-[1,2,3]triazolo[4,5-b]pyridin-4-yl}-N-{spiro[3.3]heptan-2-yl}acetamide]	5 to 50 nM	500 to 2000 nM
CCc1c(N2CCN(C(=O)c3cccc4ccoc34)[C@H]3CC[C@@H]32)c(=O)c2nn(-c3ccnc(OC)c3)nc2n1CC(=O)Nc1ccc(C(F)(F)F)cc1Cl [Compound I-119, 2-{6-[(1S,6S)-5-(1-benzofuran-7-carbonyl)-2,5-diazabicyclo[4.2.0]octan-2-yl]-5-ethyl-2-(2-methoxypyridin-4-yl)-7-oxo-2H,4H,7H-[1,2,3]triazolo[4,5-b]pyridin-4-yl}-N-[2-chloro-4-(trifluoromethyl)phenyl]acetamide]	5 to 50 nM	> 5000 nM

Second part, the molecule after the results:

IC50 [1]	EC50 [2]	Compound
5 to 50 nM	500 to 2000 nM	CCc1c(N2CCN(C(=O)c3cccc4c3OCC4)[C@H]3CC[C@@H]32)c(=O)c2nn(-c3ccnc(OC)c3)nc2n1CC(=O)Nc1ccc(C(F)(F)F)cc1Cl [Compound I-120, N-[2-chloro-4-(trifluoromethyl)phenyl]-2-{6-[(1S,6S)-5-(2,3-dihydro-1-benzofuran-7-carbonyl)-2,5-diazabicyclo[4.2.0]octan-2-yl]-5-ethyl-2-(2-methoxypyridin-4-yl)-7-oxo-2H,4H,7H-[1,2,3]triazolo[4,5-b]pyridin-4-yl}acetamide]
5 to 50 nM	500 to 2000 nM	CCc1c(N2CCN(C(=O)c3c(OC)ncc(C)c3O)CC2)c(=O)c2nn(-c3ccnc(OC)c3)nc2n1CC(=O)NC12CC(CC(F)F)(C1)C2 [Compound I-121, N-[3-(2,2-difluoroethyl)bicyclo[1.1.1]pentan-1-yl]-2-{5-ethyl-6-[4-(4-hydroxy-2-methoxy-5-methylpyridine-3-carbonyl)piperazin-1-yl]-2-(2-methoxypyridin-4-yl)-7-oxo-2H,4H,7H-[1,2,3]triazolo[4,5-b]pyridin-4-yl}acetamide]
5 to 50 nM	500 to 2000 nM	CCc1c(N2CCN(C(=O)c3c(OC)ncc(C)c3O)CC2)c(=O)c2nn(-c3ccnc(OC)c3)nc2n1CC(=O)NC12CC(C(C)(F)F)(C1)C2 [Compound I-122, N-[3-(1,1-difluoroethyl)bicyclo[1.1.1]pentan-1-yl]-2-{5-ethyl-6-[4-(4-hydroxy-2-methoxy-5-methylpyridine-3-carbonyl)piperazin-1-yl]-2-(2-methoxypyridin-4-yl)-7-oxo-2H,4H,7H-[1,2,3]triazolo[4,5-b]pyridin-4-yl}acetamide]
50 to 100 nM	> 5000 nM	CCc1c(N2CCN(C(=O)c3c(OC)ncc(C)c3O)CC2)c(=O)c2nn(-c3ccnc(OC)c3)nc2n1CC(=O)NC12CC(C3CCOC3)(C1)C2 (centres unmarked) [Compound I-123, 2-{5-ethyl-6-[4-(4-hydroxy-2-methoxy-5-methylpyridine-3-carbonyl)piperazin-1-yl]-2-(2-methoxypyridin-4-yl)-7-oxo-2H,4H,7H-[1,2,3]triazolo[4,5-b]pyridin-4-yl}-N-[3-(oxolan-3-yl)bicyclo[1.1.1]pentan-1-yl]acetamide]
> 500 nM	> 5000 nM	CCc1c(N2CCN(C(=O)c3c(OC)ncc(C)c3O)CC2)c(=O)c2nn(-c3ccnc(OC)c3)nc2n1CC(=O)NC12CC(N3CCCC3)(C1)C2 [Compound I-124, 2-{5-ethyl-6-[4-(4-hydroxy-2-methoxy-5-methylpyridine-3-carbonyl)piperazin-1-yl]-2-(2-methoxypyridin-4-yl)-7-oxo-2H,4H,7H-[1,2,3]triazolo[4,5-b]pyridin-4-yl}-N-[3-(pyrrolidin-1-yl)bicyclo[1.1.1]pentan-1-yl]acetamide]
5 to 50 nM	500 to 2000 nM	CCc1c(N2CCN(C(=O)c3c(OC)ncc(C)c3O)CC2)c(=O)c2nn(-c3ccnc(OC)c3)nc2n1CC(=O)NC1CC2(CCC2)C1 [Compound I-125, 2-{5-ethyl-6-[4-(4-hydroxy-2-methoxy-5-methylpyridine-3-carbonyl)piperazin-1-yl]-2-(2-methoxypyridin-4-yl)-7-oxo-2H,4H,7H-[1,2,3]triazolo[4,5-b]pyridin-4-yl}-N-{spiro[3.3]heptan-2-yl}acetamide]
≤ 5 nM	≤ 500 nM	CCc1c(N2CCN(C(=O)c3ncnc(C)c3O)[C@H]3CC[C@@H]32)c(=O)c2nn(-c3ccnc(OC)c3)nc2n1CC(=O)Nc1ccc(C(F)(F)F)cc1F [Compound I-126, 2-{5-ethyl-6-[(1S,6S)-5-(5-hydroxy-6-methylpyrimidine-4-carbonyl)-2,5-diazabicyclo[4.2.0]octan-2-yl]-2-(2-methoxypyridin-4-yl)-7-oxo-2H,4H,7H-[1,2,3]triazolo[4,5-b]pyridin-4-yl}-N-[2-fluoro-4-(trifluoromethyl)phenyl]acetamide]

From patent publication US20250129069A1, “TRIAZOLO WRN INHIBITORS” (Nimbus Wadjet, Inc., priority 2023, published 2025)
